Patent US20060234919A1, “Use” (priority 2001, published 2006)
Read-outs that look alike come from different tables or passages of the source.

Key:
allergic rhinitis = test: allergic rhinitis, sneezing and nasal rubbing after antigen challenge in sensitised rats; type: in vivo, rat; details: % as compared to untreated; topical 10 μl/each nostril 1 h before antigen challenge; counted 30 min
Method: Six-week-old male Wistar rats were housed in an air-conditioned room maintained at about 25° C. with humidity of about 50%. Rats were given a standard laboratory rodent chow and water ad libitum.
Rats were generally sensitised by injection of 0.6 ml physiological saline containing egg albumin (1 mg), alum (2 mg) and […] killed Bordetella pertussis into the four footpads on the first day. Five days later they were boosted by subcutaneous injection of 1 ml of physiological saline containing egg albumin (0.5 mg) in 10 sites on the back. Then, local sensitisation was performed every day for about one week from day 14 by dripping the egg albumin dissolved in physiological saline (1 mg/ml, 10 μl) into the bilateral nasal cavities using a micropipette.
After dripping 10 μl of egg albumin dissolved in physiological saline solution (1 mg/ml) into the bilateral nasal cavities, the numbers of nasal rubbing and sneezing were counted for 30 min and was set to 100%.
In this study, the rats were used following intranasal sensitisation (from day 21 to day 23 after the first sensitisation). On the last day, drugs (saline or oxytocin) were given topically (10 μl/each nostril) 1 h before topical antigen challenge. […] Also saline caused a minor decrease.

[1] = test system: carrageenan induced edema; test: carrageenan induced edema of the rat hindpaw (plethysmometer); type: in vivo; details: for carrageenan induced edema, percentage increase from pre-treatment values in hindpaw volume: 1000 μg/kg s.c., p<0.05
Method: Male Sprague-Dawley rats (260-300 g for s.c. injected and 340-380 g for i.c.v. injected) were used (B&K Universal A B, Sollentuna, Sweden). The animals arrived at least one week before experiments and were housed three-four per cage (except animals provided with i.c.v. cannulas that were housed individually) with free access to food (R36, Ewos, Södertälje, Sweden) and water. The light schedule was a 12/12 h light/dark cycle, and ambient temperature was 20±2° C.
Oxytocin and the oxytocin antagonist (1-deamino-2-D-Tyr-(OEt)-4-Thr-8-Orn-oxytocin) (Ferring, Malmö, Sweden) were dissolved in physiological saline and injected in a volume of 1 ml/kg s.c. in the dorsal neck. Dexamethasone (Decadron®, Merck, Sharp & Dome, USA) was administered intramuscularly (i.m.). Oxytocin given i.c.v. was dissolved in a volume of 5 μl physiological saline and slowly injected over a period of 1 minute through the i.c.v. guide cannula via a 25 G stain-less-steel injection needle connected to a 10 μl Hamilton syringe via a polyethylene tube. Controls received saline in the same amounts.
The model of inflammation used, the carrageenan induced edema, is a commonly used model for studies of inflammation and for testing novel anti-inflammatory drugs (Winter C A, Risley E A, Nuss G W. Carrageenan-induced edema in hind paw of the rat as an assay for anti-inflammatory drugs. Proc Soc Exp Biol Med 1962; 111:544-7). To produce acute inflammation, carrageenan, 2 mg in 0.1 ml saline, was injected s.c. into the plantar region of the rat right hindpaw.
The rats were treated s.c. with oxytocin (1.0, 10, 100 or 1000 μg/kg (n=8 in each group) or saline (n=8+8) immediately before the carrageenan injection. The edema of the right hindpaw was measured (volume in ml) using a plethysmometer (Ugo Basile, type 7150, Florence, Italy) before treatment, half an hour after, one hour after, and then every hour up to 6 or 10 hours after treatment.
The results are presented as means±SD. Statistical analysis was performed by means of a 1-way ANOVA, followed by Fisher's test for post-hoc comparisons. In the analysis of myeloperoxidase accumulation, a Student's t-test was used. P-values of 0.05 or less were regarded as statistically significant.
The rats were treated s.c. with oxytocin (1000 μg/kg) and the oxytocin antagonist (1000 μg/kg) (the antagonist was given 30 minutes before oxytocin) (n=8), the oxytocin antagonist alone (1000 μg/kg) (n=8) or saline (n=8) immediately before the carrageenan injection. Measurements as in Example 1.
The rats were treated i.c.v. with oxytocin (1.0 μg/kg) (n=6) or saline (n=7) immediately before the carrageenan injection. Measurements as in Example 1. The animals were anaesthetised with sodiumpentobarbital (50 mg/kg) (Apoteksbolaget, Sweden) injected intraperitoneally (i.p.). The scull was uncovered, a hole was drilled in the right parietal bone and a guide cannula (21 G) was fixed stereotactically to the scull by means of acrylic dental cement. The coordinates were 1.00 mm posterior and 1.30 mm lateral to the bregma. […] The injection needles (25 G) reached 3.80 mm below the dura mater, with the tip of the needle in the right lateral ventricle. The animals were allowed one week of recovery after the operation. At the end of the experiment, the placement of the guide cannula was checked by injection of 2 μl of toluidine blue.
The rats were treated i.m. with dexamethasone (10 mg/kg) (n=6) or saline (n=6) immediately before the carrageenan injection. The edema of the right hindpaw was measured using the plethysmometer before treatment, and at 2, 4 and 6 hours after treatment.

[2] = test system: carrageenan induced hyperalgesia; test: carrageenan induced hyperalgesia, Randall Selitto Test; type: in vivo, rat; details: 1000 μg/kg s.c.; 1 hour and 6 hours after the injection, compared to controls; p<0.05
Method: Nociceptive thresholds were measured in the rats given oxytocin 1000 μg/kg s.c. and their controls. This was done by determining the response to mechanical stimulation using the Randall Selitto Test (Ugo Basile, type 7200, Italy). The mechanical stimulus was applied to the dorsal surface of the hindpaw by a wedged-shape pusher at a loading rate of 48 g/s and the pressure required to initiate the struggle response was measured. All rats were trained on three consecutive days before testing.

[3] = test system: ischaemic musculocutaneous skin flaps; details: previously shown by the inventors, cited from earlier work

Question: With Oxytocin as the substance, how does the Nasal rubbing (allergic rhinitis) read?
Answer: The Nasal rubbing was 42%.

Question: And the Sneezing (allergic rhinitis)?
Answer: The Sneezing was 52%.

Question: And the “effect on carrageenan induced paw edema” value ([1]; 1.0 μg/kg i.c.v., p=0.13)?
Answer: The value was “did not decrease the paw edema”.

Question: And the “effect on carrageenan induced edema” value ([1]; 1.0 μg/kg s.c.)?
Answer: Its value is “No effect”.

Question: What about the “effect on carrageenan induced edema” value ([1]; 10 μg/kg s.c.) of the same substance?
Answer: The value was “No effect”.

Question: And the “effect on carrageenan induced edema” value ([1]; 100 μg/kg s.c., 4-10 hours after the injection)?
Answer: Its value is “reduced the edema significantly”.

Question: What about the “carrageenan induced edema, percentage increase from pre-treatment values in hindpaw volume” value ([1]; 1 hour after the injection, saline controls 43±11%) of the same substance?
Answer: The value was 21±16%.

Question: What about the “carrageenan induced edema, percentage increase from pre-treatment values in hindpaw volume” value ([1]; 2 hours after the injection, saline controls 61±22%) of the same substance?
Answer: The value was 30±17%.

Question: And the “carrageenan induced edema, percentage increase from pre-treatment values in hindpaw volume” value ([1]; 3 hours after the injection, saline controls 79±21%)?
Answer: The value was 41 ±16%.

Question: And the “hindpaw volume compared to controls” value ([1]; oxytocin 1000 μg/kg s.c. with oxytocin antagonist 1000 μg/kg s.c. given 30 minutes before, 1-10 hours after carrageenan)?
Answer: Its value is “significant reduction of the hindpaw volume”.

Question: What about the “hindpaw volume compared to controls” value ([1]; oxytocin 1000 μg/kg s.c. with oxytocin antagonist 1000 μg/kg s.c., at 24 hours) of the same substance?
Answer: The value was “significant difference was gone”.

Question: And the “nociceptive threshold, response to mechanical stimulation” value [2]?
Answer: Its value is “increase in withdrawal latency”.

Question: And the “survival of ischaemic musculocutaneous skin flaps” value ([3]; 1 μg/kg i.c.v.)?
Answer: Its value is “increases the survival”.

Question: And the “survival of ischaemic musculocutaneous skin flaps” value ([3]; 1 mg/kg s.c.)?
Answer: Its value is “induced the same effect”.
